# Patent US5578643A, “Protective prostaglandins for use in conjunction with chemotherapeutic agents” (Loyola University of Chicago, priority 1994, dated 1996)
# How the values were obtained:
# hair medullary cells = assay: Number of hair medullary cells four days after a single dose of chemotherapeutic agent, with or without misoprostol; type: in vivo, CF1 mice; details: 4 days after single IP dose: DOX 0.3, CTX 1, VP-16-213 0.3, ARA-C 8, HU 10, 5 FU 1.0, Methotrexate 0.2, Bleomycin 0.05, Mitomycin C 0.01, Cisplatin 0.25, Carboplatin 1.0, Taxol 0.6 mg; untreated control 51.4 ± 0.6
# Experimental: FIG. 13 is a representation of photographs of shafts of hair showing a single line of medullary cells in control mice (Panel A) and in mice 4 days after they were given a single dose of 0.3 mg of VP-16-213 (Panel B).
# Number of Hair Medullary Cells as a Measure of Protection from Injury caused by Chemotherapeutic Agents.
# The shafts of hair in CF1 mice contain usually a single line of about 50±1 medullary cells. These cells are very sensitive to cytotoxic agents (see Potten, C. S., Geng, L., and Taylor, P., Hair Medullary Cell Counts: a Simple and Sensitive Indicator of Radiation Exposure. Int. J Radiat. Biol., 57:13-21, 1990). Single doses of cytotoxic chemotherapeutic agents greatly reduce the number of medullary cells which reach a nadir at 4 days after administration of the agent. This cell system has been used for the evaluation of misoprostol-induced protection from several chemotherapeutic agents.
# CF1 mice had hair from an area of their rump plucked to induce anagen growth as described in Example 2 above. […] In separate groups, mice received misoprostol (40 μg/average 30 g mouse) either subcutaneously or applied topically 2 hours before each of the chemotherapeutic agents listed above. Untreated controls were used since it has been previously determined that water, or 2% EtOH in water, or phosphate buffer at pH=6.8 (the vehicles for the all agents used) had no influence on the cell counts compared to untreated controls. Twenty-five hairs from each animal of each group were dissected from Feulgen stained samples taken from the mice 4 days after treatment.
# The number of medullary cells was averaged (n=4) for each treatment group and the results for all chemotherapeutic agents tested to date are presented in Table I.
# [1] = system: mice given graded doses of doxorubicin (DOX); assay: DOX dose response: dose killing 50% of the mice within 15 days, alone or after PG or WR-2721; type: in vivo; details: for effect on DOX dose necessary to kill 50% of mice: 10 μg of 16,16-dimethyl PGE2 or 25 μg of SC-44932, 2 hours before graded doses of doxorubicin, n=8, FIG. 6
# Experimental: The open triangle is data of a group of 10 mice given WR-2721, 30 minutes before administration of 0.75 mg of doxorubicin. (The lines are computer fit spline curves through the data; n=24 per data point on each curve).
# (The lines are computer fit spline curves through the data; n=8 per data point for each of the PG-treated groups and n=24 for the data points of mice treated only with doxorubicin).
# It was observed that all acute deaths due to DOX treatment alone occurred before day 15 following DOX administration. Subsequently, the parameter of death within 15 days was used to investigate the DOX dose response administered IP alone or 2 hours after 40 μg of misoprostol was given subcutaneously (sc). In this study, a dose of about 0.5 mg of DOX/average 30 gram mouse, killed 50% of the DOX treated mice (see FIG. 5).
# A comparison of PG-induced protection was made to that of protection by WR-2721; an agent reported to protect from some chemotherapeutic agents. […] Two other PGs representing different structural prostaglandins than misoprostol were also investigated for their effectiveness in protecting mice from mortality resulting from administration of graded doses of DOX.
# [2] = Survival of mice (percent survival over 15 days) after doxorubicin, with or without prior prostaglandin; details: mouse, in vivo, ip, 0.5 mg
# Experimental: (§1) FIG. 1 is a graph illustrating percent survival of mice over 15 days as a function of the time interval (in hours) between the administration of misoprostol and the subsequent administration of doxorubicin. (The two curves represent duplicate experiments; 12 animals per experiment.)
# (§2) FIG. 2 is a graph illustrating the percent survival of mice over 15 days following the administration of 0.5 mg of doxorubicin (open circles) and mice given 40 μg of misoprostol 2 hours before administration of 0.5 mg of doxorubicin (filled circles). (N=16 for each group).
# (§3) FIG. 3 is a graph illustrating the percent survival of mice over 15 days following the administration of 0.75 mg of doxorubicin (open circles) and mice given 40 μg of misoprostol 2 hours before administration of 0.75 mg of doxorubicin (filled circles). (N=16 for each group).
# (§4) Mortality of mice is a measure of PG-induced protection from death due to severe normal tissue injury inflicted by chemotherapy agents.
# (§5) This assay was accomplished by injecting intraperitoneally (IP) separate groups of mice with a range of doses of chemotherapeutic agents. […] In some groups of mice, longevity was recorded by plotting the number of animals remaining alive (percent survival) versus time following the administration of the chemotherapeutic agent.
# (§6) PG-induced protection from the toxic chemotherapeutic agents was measured by subcutaneous (SC) injection of the PG at various times prior to or after the IP administration of the chemotherapeutic agent. […] The time interval was varied from 15 minutes to 5 hours. The two curves represent two separate experiments with 20 mice in each experiment. The "0" time point is the percentage of mice that survived 15 days after administration of doxorubicin alone.
# [3] = system: mice given doxorubicin (DOX); assay: as above; details: 0.75 mg of DOX IP alone; n=16; FIG. 3
# Experimental: as §1, §2, §3, §4, §5, §6
# [4] = system: white blood cells (WBCs) in the peripheral circulation; assay: WBC counts and differential counts in peripheral blood of DOX treated mice; type: in vivo
# Experimental: FIG. 7 is a graph illustrating the protective effect of misoprostol (given 2 hours before doxorubicin) on WBC counts compared to the effect of doxorubicin alone on WBC counts as function of time (in days). (The numbers 1 and 2 are duplicate studies.)
# Death within 15 days of DOX treatment alone is most likely associated with bone marrow injury. […] DOX, therefore, appears to not only reduce the total WBC, but has a particularly marked effect on lymphocytes.
# hair follicles = assay: Hair count / hair loss (alopecia) caused by chemotherapeutic agents, 5 daily treatments; type: in vivo, mice; details: 0.1 mg DOX daily for 5 days IP; controls 248±5; FIG. 9
# Experimental: Panel C is a representation of a photomicrograph of an animal given 40 μg of misoprostol, 2 hours before the 0.1 mg daily dose of doxorubicin given each day for 5 days.
# (Data are the means of 6 mice (2 fields/mouse)±1 SEM.)
# Amount of Hair Loss as a Measure of PG-induced Protection from Alopecia caused by Chemotherapeutic Agents.
# One of the side effects of chemotherapy in cancer patients is hair loss or alopecia. Studies were conducted to measure a possible protective effect of PGs from alopecia caused by chemotherapeutic agents. […] The hairs on the rumps of mice (n=4/group) were plucked to induce a growth or anagen cycle within hair follicles which continues for about 18 days. […] Control groups (n=4) received no treatment or misoprostol alone.
# skin (hair follicles) = assay: Hair count after a single dose of doxorubicin, with or without PGE1; type: in vivo, mice; details: FIG. 11
# Experimental: FIG. 11 is a graph illustrating the number of hairs per 4.16 sq. mm of skin area in control mice, in mice that received 0.5 mg of doxorubicin or in mice that received 10 μg of PGE1 2 hours before receiving 0.5 mg of doxorubicin. (Data are the means of 6 mice (2 field/mouse)±SEM.)
# (§7) The hair counts from skin fields of control (open bar), DOX (striped bar) and misoprostol+DOX (filled bar) treated mice are shown in FIG. 9. […] Misoprostol given before DOX increased the hair count to 213±7.8. […] Since prostaglandin receptors are not evenly distributed, protection may not be evenly distributed. PGE1 is associated with the skin (hair follicles) but not with the gut. The ability of PGE1 to protect the skin (hair follicles) and the small intestine from cell injury caused by doxorubicin was tested. […] A single dose of 0.5 mg of doxorubicin reduced this count to 43±8. Administration of 10 μg of PGE1 prior to administration of doxorubicin provided protection as indicated by the increase in the number of hairs to 111±12. […] More evidence is presented in Example 3.
# small intestine = assay: Intestinal microcolonies in DOX treated mice, with or without PGE1; type: in vivo; details: FIG. 12
# Text: (Data are the means of 4 mice±1 SEM.)
# as §7
# kidney = details: bolus infusions of cisplatin; Glover et al.; cited from earlier work
# humans = details: WR-2721 in large protective doses; cited from earlier work
compound,measurement,setting,value
"N.N.[Cl][Pt][Cl] [Cisplatin, cisplatin]","Number of Medullar Cells ± 1 SEM, chemotherapeutic agent IP alone",hair medullary cells,25.9 ± 1.5
"CCCCC(C)(C)[C@H](O)/C=C/[C@H]1[C@H](O)CC(=O)[C@@H]1C/C=C\CCCC(=O)O [16,16-dimethyl PGE2, 16,16-dimethyl prostaglandin E2]",effect on DOX dose necessary to kill 50% of mice,[1],increased the DOX dose necessary to kill 50% of a population (n=8) of mice
"C/C=C/C=C/[C@](C)(O)C/C=C/C1C(O)CC(=O)C1CC/C=C\CCC(=O)OC (mixture of isomers) [SC-44932, (±) methyl, 7-[3α-hydroxy-2β-(4R-hydroxy-4-methyl-1E, 5E,7E-nonatrienyl)-5-oxo-1α-cyclopentyl]-4-Z-heptenoate]",effect on DOX dose necessary to kill 50% of mice,[1],increased the DOX dose necessary to kill 50% of a population (n=8) of mice
"COc1cccc2c1C(=O)c1c(O)c3c(c(O)c1C2=O)C[C@@](O)(C(=O)CO)C[C@@H]3O[C@H]1C[C@H](N)[C@H](O)[C@H](C)O1 [DOX, doxorubicin]",survival at 360 h,[2],~25%
same,"mortality, DOX alone",[3],All of the mice were dead by six days
same,"dose of DOX that killed 50% of the mice, DOX alone","[1]; IP, death within 15 days, FIG. 5",about 0.5 mg of DOX/average 30 gram mouse
same,time of all acute deaths due to DOX treatment alone (before day),[1]; following DOX administration,< 15 days
same,"WBCs in the peripheral circulation, DOX alone","[4]; 0.5 mg DOX/30 gram mouse, FIG. 7",sharply reduced over 7 days following treatment
same,"percentage of lymphocytes, DOX alone","[4]; 0.5 mg of DOX, differential counts, control mice about 85%",less than 10%
same,"number of hairs, DOX alone",hair follicles,144±3 hairs per 4.42 sq. mm
same,"number of hairs, doxorubicin alone","skin (hair follicles); single dose of 0.5 mg doxorubicin, control 237±5",43±8 hairs per 4.16 sq. mm
same,"number of intestinal colonies per circumference, DOX alone",small intestine; 0.5 mg of doxorubicin,6±0.3 intestinal colonies per circumference
same,"Number of Medullar Cells ± 1 SEM, chemotherapeutic agent IP alone",hair medullary cells,18.3 ± 1.7
"O=P1(N(CCCl)CCCl)NCCCO1 (stereo not drawn) [CTX, cytoxan]","Number of Medullar Cells ± 1 SEM, chemotherapeutic agent IP alone",hair medullary cells,22.1 ± 1.9
"NCCCNCCSP(=O)(O)O [WR-2721, S-2-(3-aminopropylamino) ethylphosphorothioxic acid]",protection of mice from DOX by WR-2721,"[1]; WR-2721 30 minutes before 0.75 mg of doxorubicin, n=10, FIG. 5",did not protect mice (n=10) from DOX treatment
same,kidney protection from cisplatin injury,kidney,protect the kidney from injury caused by bolus infusions of cisplatin
same,side effects in humans,humans,"causes hypotension, nausea, and vomiting in humans"
bleomycin,"Number of Medullar Cells ± 1 SEM, chemotherapeutic agent IP alone",hair medullary cells,30.4 ± 1.4
CCCCC[C@H](O)/C=C/[C@H]1[C@H](O)CC(=O)[C@@H]1CCCCCCC(=O)O [PGE1],"number of hairs, PGE1 + doxorubicin",skin (hair follicles); 10 μg of PGE1 2 hours before 0.5 mg doxorubicin,111±12 hairs per 4.16 sq. mm
same,"number of intestinal colonies per circumference, PGE1 + DOX",small intestine; 10 μg of PGE1 (b62 prints .rho.g) 2 hours before 0.5 mg doxorubicin,did not change
"N.N.O=C([O-])C1(C(=O)[O-])CCC1.[Pt+2] [Carboplatin, carboplatin]","Number of Medullar Cells ± 1 SEM, chemotherapeutic agent IP alone",hair medullary cells,37.8 ± 2.4
